Reference: patent US20240033244A1, “COMPOSITIONS AND METHODS FOR INHIBITING YTHDF1” (SHANGHAI INSTITUTE OF MATERIA MEDICA, CHINESE ACADEMY OF …, priority 2020, published 2024)

Tests used:
[1] = target: T1, YTHDF1 mutant W384A (Homo sapiens, UniProt Q9BYJ9, W384A); test: FP assay with YTHDF1 mutant W384A; format: binding
T1 construct: GST (N, cleaved yes); made in house; host or cells: E. coli BL21 (DE3)
Description: (§1) The protein YTHDF1 (361-559) (SEQ ID NO: 2) and its mutants (SEQ ID NOs: 4-13) were cloned into pGEx-6P-1 vector (obtained from YouBio Co, Ltd, Catalog NO: VT1258), and the His-YTHDF1 (361-559) (SEQ ID NO: 3) used in AlphaScreen Assay was cloned into modified pET28a vector (obtained from YouBio Co, Ltd, Catalog NO: VT1207). The vectors were transformed into E. coli BL21 (DE3) cells and cultured at 37° C. When OD value reached 0.6˜0.8, 1 mM Isopropyl-β-D-thiogalactopyranoside was added to overexpress the protein at 16° C. overnight. […] Then, the proteins were further purified via cation exchange (HiTrap SP, GE Healthcare) and finally through a Superdex 75 10/300 column (GE Healthcare). At last, the purified YTHDF1(361-559) and the mutants were kept in buffer which contains 20 mM Hepes (pH 7.4) and 200 mM NaCl. For His-YTHDF1 (361-559), the protein was purified via Ni-NTA chromatography (HisTrap FF, GE Healthcare), followed by cation exchange and Superdex 75 10/300 column in sequence. And the obtained protein was kept in the buffer with the same ingredients.
(§2) All of the YTHDF1 (361-559), the 5′-FAM labeled m^6A-containing mRNA (5′-FAM-[…] (m^6A) CUGUG-3′, SEQ ID NO: 14) and the candidate compounds were diluted with assay buffer (20 mM Hepes (pH 7.4), 50 mM NaCl, 0.01% (v/v) tween 20, 5% (v/v) glycerol). […] At last, the mixtures were measured by Envision Readers (PerkinElmer). […]

[2] = target: T2, YTHDF1 mutant N378A (Homo sapiens, UniProt Q9BYJ9, N378A); test: FP assay with YTHDF1 mutant N378A; format: binding
T2 construct: GST (N, cleaved yes); made in house; host or cells: E. coli BL21 (DE3)
T2 sequence (Q9BYJ9 with tags, fused parts or gaps N378A): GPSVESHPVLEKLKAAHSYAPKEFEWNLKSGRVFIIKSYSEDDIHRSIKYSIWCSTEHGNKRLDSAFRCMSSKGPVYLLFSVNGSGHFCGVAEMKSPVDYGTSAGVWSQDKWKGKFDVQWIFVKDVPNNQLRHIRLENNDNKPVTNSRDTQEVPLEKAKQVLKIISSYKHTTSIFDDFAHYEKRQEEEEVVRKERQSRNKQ
Description: as §1, §2

[3] = system: classical DCs in draining lymph node; test: Ex vivo cross-priming by DCs sorted from draining lymph node of treated mice; format: in vivo, mouse; settings: four DC subtypes from SAA treated B16-OVA bearing mice, day 12
Description: For in vitro cross-presentation study, mature FLT3L-DCs were harvested on day 9 and purified by EasySep Mouse CD11 c Positive Selection Kit II, then treated with 10 μM SAA or DMSO in IMDM medium (contain 10% bovine and 100 ng/mL FLT3L) for 10 h. […] Then antigen-obtained DCs were purified and co-cultured with naïve T cells from OT-1 mice at a ratio of 1:10 for 96 h. The co-culture medium was 1640 RPMI contains 10% fetal bovine with or without 1 μg/mL OT-1 (OVA 257-264) peptide. For ex vivo DCs cross-presentation assay, four types of DCs (migration CD11b DC, migration CD103′ DC, resident CD11b DC and resident CD8^+ DC) were sorted in draining lymph node from SAA treated B16-OVA bearing mice at day 12. These DCs were co-cultured with OT-1 naïve T cells in the ratio of 1:10 for 96 hours with or without OT-1 peptide. Supernatant IFN-γ production was detected via CBA assay.
Further, four types of classical DCs (resident CD11b^+, resident CD8α^+, migratory CD11b^+ and migratory CD103^+) in draining lymph node were sorted from SAA treated B16-OVA bearing wild-type mice on day 12. These DCs were co-cultured with OT-I T cells for 72 hours. Then, IFN-γ production was assessed by IFN-γ cytometric bead array.

T1 sequence (Q9BYJ9 with tags, fused parts or gaps W384A): as the sequence (Q9BYJ9 with tags, fused parts or gaps N378A) above, with A20N, W26A counted along it

Question: `O=C(/C=C/c1ccc(O)c(O)c1/C=C/c1ccc(O)c(O)c1)O[C@H](Cc1ccc(O)c(O)c1)C(=O)O` [SAA, Salvianolic Acid A] was tested. Which “inhibitory activity against mutant binding to m6A versus wildtype” value [1] did it give?
Answer: significantly weaker than that against wildtype YTHDF1

Question: What about the “inhibitory activity against mutant binding to m6A versus wildtype” value [2] of the same compound?
Answer: significantly weaker than that against wildtype YTHDF1

Question: What about the “cross-priming of T cells (IFN-γ production)” value [3] of the same compound?
Answer: better cross-priming of T cells than DMSO treated group
